Experimental findings from US10077284B2, “UBA5 inhibitors” (THE GOVERNING COUNCIL OF THE UNIVERSITY OF TORONTO, priority 2014, dated 2018) are described below.

“And” between values parts separate entries of the source, which are not always exact repeats. Identical values can stand only once. Like-named read-outs stand apart in the source and are kept apart here.

One series concerns the target T1, GST-UBA5 (Homo sapiens, UniProt Q9GZZ9).
T1 construct: made in house
Briefly: UBA5 transthiolation assay (UFC1-UFM1 conjugate formation). The format is biochemical.

A further series addresses UBA5 (Homo sapiens, UniProt Q9GZZ9). Conditions: in the presence of 1.5.Zn (5 μM). On the procedure: Initial rates were recorded over 30 second time intervals from 0 to 2.5 min (normal kinetics) or 0 to 5 min (inhibition kinetics). Reactions were initiated by the addition of ATP and stopped using 4× Laemmli sample buffer (BioRad). The generated protein conjugates were separated on a 10% […] SDS-polyacrylamide gel (4-15% gels were used for the UAE transthiolaton assay), followed by Western blot analysis, with the exception of GST-UBA5 where protein bands were detected using Coomassie™ Brilliant Blue R-250 staining or Stain-Free gel imaging for the enzymatic assays (Bio-Rad). Transfers for the UAE and NAE immunoblots were performed using nitrocellulose membranes and blocking and blotting was performed as described above with cellular protein extracts. The His6-tagged Ub-UBCH6 complex was detected using an anti-His mouse monoclonal primary antibody (1:500, abcam). A rabbit anti-NEDD8 polyclonal primary antibody (1:500, BostonBiochem) was used for the detection of the E2-NEDD8 complexes. […] Inhibitory data was fit to a dose-response curve (Y=Bottom+(Top−Bottom)/(1+10^(X-Log IC50))) using GraphPad Prism 6.
Concentrations of UBA5 (1 μM), UFM1 (10 μM), and UFC1 (10 μM) were held constant, while the concentration of ATP was varied from 0 to 1 mM. […] Protein concentrations were held constant as in (A), and concentrations of ATP were varied from 0 to 1 mM (n=3). […]

In series [1] the test system is Sk-Luci6, A549 and MRC-9 cells. As to conditions: all treated cells.
Source text: Confluence of live cells was estimated visually under phase contrast microscopy.
Sk-Luci6, A549 and MRC-9 were each plated as 5×10^3 cells per well and grown in 10% serum on a 96 well plate. […] Cell numbers were obtained at 24 hr time points over a period of 72 hrs using trypan blue exclusion assay (BioRad; #145-0021) and counted using a hemocytometer.
In series [2] the test system is NEDD8 downstream protein labeling in Sk-Luci6 cells. As to conditions: Sk-Luci6, increasing concentrations. On the procedure:
(§1) Cells were washed twice with cold PBS and protein extracts were prepared using RIPA buffer with a protease and phosphatase inhibitor cocktail (Roche #11836153001, #04906845001). Protein concentrations were determined using the BCA protein quantification technique (BCA Protein assay kit, Pierce). In each assay, 30 μg of whole cell protein extract was resolved on a 10% SDS-polyacrylamide gel and transferred to a PVDF membrane (Bio-Rad). The membranes were blocked with SuperBlock (Thermo scientific; No. 37515) for at least 1 hr followed by an overnight incubation in primary antibody. Blots were probed with antibodies against UBA5 (abcam; ab109227) and UFM-1 (abcam; ab09305) in a 1:1000 dilution, and anti-β-actin (1:5000 dilution; Cell Signaling, 3700S) was used as a loading control. Fluorescent labeled secondary antibodies anti-rabbit Alexa Fluor® 647 Conjugate (red, 1:5000) and anti-mouse Alexa Fluor® 488 Conjugate (green, 1:20,000) were used to detect bands (Cell Signaling; 4414S and 4408S, respectively). The bands were visualized and analyzed using Image lab software (Bio-Rad).
(§2) Bands were visualized using anti-rabbit Alexa Fluor® 647 (1:5000, for NEDD8 and NEDD8 conjugates) and anti-mouse Alexa Fluor® 488 (1:20,000, for actin) secondary antibodies.

Series [3] relates to NEDD8 downstream protein labeling in A549 cells. Conditions: A549, increasing concentrations. On the procedure: as §1, §2
Series [4] concerns UFM1 conjugation in Sk-Luci6 cells. Conditions: Sk-Luci6, increasing concentrations, 72 h. As for the experimental part:
as §1, with “Fluorescent labeled secondary antibodies anti-rabbit Alexa Fluor® 647 Conjugate (red, 1:5000) and anti-mouse Alexa Fluor® 488 Conjugate (green, 1:20,000) were used to detect bands (Cell Signaling; 4414S and 4408S, respectively).” left out
(§3) The intracellular inhibition of UBA5 was evaluated in order to investigate its use as a molecular tool to study cellular UFMylation by UBA5 inactivation. […] The graphical representation of the intracellular inhibition of UFM1 protein conjugation (evaluated using Western Blot analysis, described in detail within the Materials and Methods submitted in May 2014) is shown in FIG. 26. […]

Series [5] deals with UFM1 conjugation in K562 cells. Conditions: K562, increasing concentrations, 72 h. As for the experimental part:
as §1, with “Fluorescent labeled secondary antibodies anti-rabbit Alexa Fluor® 647 Conjugate (red, 1:5000) and anti-mouse Alexa Fluor® 488 Conjugate (green, 1:20,000) were used to detect bands (Cell Signaling; 4414S and 4408S, respectively).” left out
as §3

Series [6] has as its target T2, NEDD8 activating enzyme (NAE) (Homo sapiens, UniProt Q8TBC4).
T2 construct: purchased Boston Biochem
T2 sequence (Q8TBC4 1-463): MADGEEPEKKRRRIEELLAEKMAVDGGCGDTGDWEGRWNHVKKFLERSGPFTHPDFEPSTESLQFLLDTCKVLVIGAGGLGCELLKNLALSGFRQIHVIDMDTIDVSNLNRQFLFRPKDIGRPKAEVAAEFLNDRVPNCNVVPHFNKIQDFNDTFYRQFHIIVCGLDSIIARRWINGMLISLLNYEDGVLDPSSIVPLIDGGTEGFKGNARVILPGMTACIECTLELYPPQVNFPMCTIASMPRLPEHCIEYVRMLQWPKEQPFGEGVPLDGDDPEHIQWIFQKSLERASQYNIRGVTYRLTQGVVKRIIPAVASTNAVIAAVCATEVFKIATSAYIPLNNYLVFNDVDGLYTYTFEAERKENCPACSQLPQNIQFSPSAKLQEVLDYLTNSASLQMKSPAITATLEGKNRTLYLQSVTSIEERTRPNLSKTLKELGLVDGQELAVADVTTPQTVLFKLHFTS
T2 sequence (Q13564 1-534 partner): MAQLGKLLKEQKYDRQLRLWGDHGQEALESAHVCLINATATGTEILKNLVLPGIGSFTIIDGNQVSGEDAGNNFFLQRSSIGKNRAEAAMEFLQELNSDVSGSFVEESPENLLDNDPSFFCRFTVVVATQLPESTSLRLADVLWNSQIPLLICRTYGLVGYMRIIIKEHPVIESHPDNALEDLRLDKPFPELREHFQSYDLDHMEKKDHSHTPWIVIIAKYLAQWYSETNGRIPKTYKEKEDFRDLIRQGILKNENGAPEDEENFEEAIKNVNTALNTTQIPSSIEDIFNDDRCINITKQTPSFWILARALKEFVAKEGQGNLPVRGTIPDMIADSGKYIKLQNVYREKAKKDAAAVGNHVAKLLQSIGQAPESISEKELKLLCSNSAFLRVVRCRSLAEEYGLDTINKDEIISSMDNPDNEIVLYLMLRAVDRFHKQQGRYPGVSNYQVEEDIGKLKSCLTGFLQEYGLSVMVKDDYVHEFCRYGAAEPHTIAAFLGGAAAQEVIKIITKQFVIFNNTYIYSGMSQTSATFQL
The experiment in a line: NAE transthiolation assay (NEDD8 transfer to UbcH12). The format is biochemical.
Procedure: (§4) Initial rates were recorded over 30 second time intervals from 0 to 2.5 min (normal kinetics) or 0 to 5 min (inhibition kinetics). Reactions were initiated by the addition of ATP and stopped using 4× Laemmli sample buffer (BioRad). The generated protein conjugates were separated on a 10% non-degenerating SDS-polyacrylamide gel (4-15% gels were used for the UAE transthiolaton assay), followed by Western blot analysis, with the exception of GST-UBA5 where protein bands were detected using Coomassie™ Brilliant Blue R-250 staining or Stain-Free gel imaging for the enzymatic assays (Bio-Rad). Transfers for the UAE and NAE immunoblots were performed using nitrocellulose membranes and blocking and blotting was performed as described above with cellular protein extracts. The His6-tagged Ub-UBCH6 complex was detected using an anti-His mouse monoclonal primary antibody (1:500, abcam). A rabbit anti-NEDD8 polyclonal primary antibody (1:500, BostonBiochem) was used for the detection of the E2-NEDD8 complexes. […] Inhibitory data was fit to a dose-response curve (Y=Bottom+(Top−Bottom)/(1+10^(X-Log IC50))) using GraphPad Prism 6.

T1 sequence (Q9GZZ9 whole entry): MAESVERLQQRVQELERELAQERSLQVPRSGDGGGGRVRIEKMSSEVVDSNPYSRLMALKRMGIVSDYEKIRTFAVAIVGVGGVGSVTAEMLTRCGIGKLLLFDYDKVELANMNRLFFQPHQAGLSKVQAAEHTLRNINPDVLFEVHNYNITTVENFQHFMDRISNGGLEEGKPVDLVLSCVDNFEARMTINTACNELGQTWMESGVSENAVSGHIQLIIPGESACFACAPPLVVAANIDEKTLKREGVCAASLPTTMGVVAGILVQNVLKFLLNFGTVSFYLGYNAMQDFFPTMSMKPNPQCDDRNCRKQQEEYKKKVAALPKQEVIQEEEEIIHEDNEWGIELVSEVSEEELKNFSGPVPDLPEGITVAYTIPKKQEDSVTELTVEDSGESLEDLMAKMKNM
Sequence of UBA5 (Q9GZZ9 whole entry): as above
Procedure for GST-UBA5: as §4

A word on the IC50: it is the concentration at which inhibition is half-maximal. As for `Nc1ncnc2c1ncn2[C@@H]1O[C@H](C(=O)NCCCCCC(=O)N2CCNCCNCCNCC2)[C@@H](O)[C@H]1O.O=S(=O)([O-])C(F)(F)F.O=S(=O)([O-])C(F)(F)F.[Zn+2]` [Compound 1.5.Zn, (2S,3S,4R,5R)—N-(6-(1,4,7,10-tetraazacyclododecan-1-yl)-6-oxohexyl)-5-(6-amino-9H-purin-9-yl)-3,4-dihydroxytetrahydrofuran-2-carboxamide zinc trifluoromethanesulfonate], the IC50 is 4 µM on GST-UBA5 (Table 1, transthiolation enzymatic assay, read-out: IC50); 4 µM on GST-UBA5 (Table 5, n = 3, read-out: IC50); 4.1 µM and 4 µM on GST-UBA5 (read-out: IC50, inhibition of UFC1-UFM1 conjugate formation); 103 µM and 66.8 µM in series [6] (n=3-6). In addition, the “relative inhibitor activity against UBA5” value at GST-UBA5 (comparison between series) is “most potent zinc-coordinated complex”. For the same compound, the VMAX on UBA5 amounted to 0.988 ± 0.137 pmol/min. Also, the kCAT at UBA5 came to 0.00188 ± 0.000267 s⁻¹. In addition, the cell death entry in series [1] is recorded as “no cell death”. Moreover, the “intracellular NAE inhibition (NEDD8 labeling)” value in series [2] and in series [3] was “no intracellular NAE inhibition” throughout. The UFMylation levels result in series [4] and in series [5] was “Decreased UFMylation levels” in each case. Besides, in series [6] (ratio of IC50), the “selectivity for UBA5 over NAE” value is > 20 fold and ~20 fold.
